{
  "source": "patent US20220023258A1",
  "about": "“METHODS OF TREATING CONDITIONS RELATED TO THE S1P1 RECEPTOR” (Arena Pharmaceuticals, Inc., priority 2018, published 2022)",
  "key": {"healthy adult subjects [1]": {"tested_on": "healthy adult subjects", "assay": "Multiple ascending dose study: heart rate, blood pressure, QTc", "format": "in vivo, human", "settings": "Day 1 to Day 28", "protocol": "(§1) A randomized, double-blind, placebo-controlled, sequential, ascending, multiple dose study to assess the safety, tolerability, and pharmacokinetics of the L-arginine salt of Compound 1 administered to healthy adult subjects was conducted. This study was designed to evaluate the safety, tolerability, pharmacokinetics, and pharmacodynamics of the L-arginine salt of Compound 1.\n(§2) Cohort 1 was dosed with 0.7 mg (by administering two 0.35 mg formulations) for 21 days. Cohort 2 was dosed with 1.35 mg (by administering both a 0.35 mg formulation and a 1 mg formulation) for 21 days. Cohort 3 was dosed with 2.0 mg for 21 days. Cohort 4 was dosed with 0.35 mg for 7 days and then with 2.0 mg for 14 days. Cohort 5 was dosed with 0.5 for 7 days and then with 3.0 mg (by administering both a 1 mg formulation and a 2 mg formulation) for 14 days.\n(§3) The following safety assessments were conducted: physical examinations with ophthalmoscopy, clinical laboratory tests (serum chemistry, coagulation, and urinalysis), vital signs, continuous telemetry (12 lead ECG), safety ECGs, pulmonary function testing (PFT), serum protein electrophoresis (SPEP) and serum immunoelectrophoresis (IEP), and adverse event reporting."}, "lymphocytes [2]": {"tested_on": "lymphocytes", "assay": "Dose-ranging study in ulcerative colitis: lymphocyte counts", "format": "in vivo, human", "settings": "12 weeks", "excerpt": "Exploratory endpoints included change from baseline in lymphocyte counts at Weeks 1, 2, 4, 8, and 12; proportion of patients achieving clinical remission at Week 12; and proportion of patients who achieve clinical response at Week 12."}, "lymphocytes [3]": {"tested_on": "lymphocytes", "assay": "Multiple ascending dose study: lymphocyte counts", "format": "in vivo, human", "settings": "for Lymphocytes On Treatment Mean (SD) / Lymphocytes Percent Change from Baseline Mean / Lymphocytes Percent Change from Baseline Median / Lymphocytes Percent Change from Baseline Min, Max: day 21", "protocol": "as §1, §2"}, "healthy adult subjects [4]": {"tested_on": "healthy adult subjects", "assay": "Multiple ascending dose study: safety and tolerability", "protocol": "as §3"}, "[5]": {"settings": "0.35 mg for 7 days then 2.0 mg for 14 days"}, "[6]": {"settings": "0.5 mg for 7 days then 3.0 mg for 14 days"}},
  "note": "“Also recorded” adds a separate entry of the source. Where a name gives a salt, the structure may show the parent alone.",
  "data": [
    {"smiles": "O=C(O)C[C@H]1CCc2c1[nH]c1ccc(OCc3ccc(C4CCCC4)c(C(F)(F)F)c3)cc21", "note": "[L-arginine salt of Compound 1]", "values": [
      {"measurement": "Minimum post-dose Systolic BP, Change from Baseline Min, Max", "setting": "healthy adult subjects [1]; 0.7 mg for 21 days", "result": "−16.00 to −1.00", "unit": "mmHg"},
      {"measurement": "Minimum post-dose Systolic BP, On Treatment Mean", "setting": "healthy adult subjects [1]; 0.7 mg for 21 days", "result": 96.10, "unit": "mmHg"},
      {"measurement": "Minimum post-dose Diastolic BP, Change from Baseline Mean", "setting": "healthy adult subjects [1]; 1.35 mg for 21 days", "result": "−5.20", "unit": "mmHg"},
      {"measurement": "Minimum post-dose Diastolic BP, Change from Baseline Median", "setting": "healthy adult subjects [1]; 1.35 mg for 21 days", "result": "−7.50", "unit": "mmHg"},
      {"measurement": "Minimum post-dose Diastolic BP, Change from Baseline Min, Max", "setting": "healthy adult subjects [1]; 1.35 mg for 21 days", "result": "−11.00 to 6.00", "unit": "mmHg"},
      {"measurement": "Minimum post-dose Diastolic BP, On Treatment Mean (SD)", "setting": "healthy adult subjects [1]; 1.35 mg for 21 days", "result": "53.70 (4.03) mmHg"},
      {"measurement": "Minimum post-dose Heart Rate, Change from Baseline Mean", "setting": "healthy adult subjects [1]; 1.35 mg for 21 days", "result": "−6.20", "unit": "BPM"},
      {"measurement": "Minimum post-dose Heart Rate, Change from Baseline Median", "setting": "healthy adult subjects [1]; 1.35 mg for 21 days", "result": "−5.00", "unit": "BPM"},
      {"measurement": "Minimum post-dose Heart Rate, Change from Baseline Min, Max", "setting": "healthy adult subjects [1]; 1.35 mg for 21 days", "result": "−18.00 to 3.00", "unit": "BPM"},
      {"measurement": "Minimum post-dose Heart Rate, On Treatment Mean (SD)", "setting": "healthy adult subjects [1]; 1.35 mg for 21 days", "result": "54.40 (4.09) BPM"},
      {"measurement": "Minimum post-dose Systolic BP, Change from Baseline Mean", "setting": "healthy adult subjects [1]; 1.35 mg for 21 days", "result": "−8.90", "unit": "mmHg"},
      {"measurement": "Minimum post-dose Systolic BP, Change from Baseline Median", "setting": "healthy adult subjects [1]; 1.35 mg for 21 days", "result": "−8.00", "unit": "mmHg"},
      {"measurement": "Minimum post-dose Systolic BP, Change from Baseline Min, Max", "setting": "healthy adult subjects [1]; 1.35 mg for 21 days", "result": "−22.00 to 3.00", "unit": "mmHg"},
      {"measurement": "Minimum post-dose Systolic BP, On Treatment Mean", "setting": "healthy adult subjects [1]; 1.35 mg for 21 days", "result": 100.10, "unit": "mmHg"},
      {"measurement": "Minimum post-dose Diastolic BP, Change from Baseline Mean", "setting": "healthy adult subjects [1]; 2.0 mg for 21 days", "result": "−11.20", "unit": "mmHg"},
      {"measurement": "Minimum post-dose Diastolic BP, Change from Baseline Median", "setting": "healthy adult subjects [1]; 2.0 mg for 21 days", "result": "−9.00", "unit": "mmHg"},
      {"measurement": "Minimum post-dose Diastolic BP, Change from Baseline Min, Max", "setting": "healthy adult subjects [1]; 2.0 mg for 21 days", "result": "−21.00 to −4.00", "unit": "mmHg"},
      {"measurement": "Minimum post-dose Diastolic BP, On Treatment Mean (SD)", "setting": "healthy adult subjects [1]; 2.0 mg for 21 days", "result": "45.30 (7.42) mmHg"},
      {"measurement": "Minimum post-dose Heart Rate, Change from Baseline Mean", "setting": "healthy adult subjects [1]; 2.0 mg for 21 days", "result": "−8.30", "unit": "BPM"},
      {"measurement": "Minimum post-dose Heart Rate, Change from Baseline Median", "setting": "healthy adult subjects [1]; 2.0 mg for 21 days", "result": "−7.50", "unit": "BPM"},
      {"measurement": "Minimum post-dose Heart Rate, Change from Baseline Min, Max", "setting": "healthy adult subjects [1]; 2.0 mg for 21 days", "result": "−16.00 to −3.00", "unit": "BPM"},
      {"measurement": "Minimum post-dose Heart Rate, On Treatment Mean (SD)", "setting": "healthy adult subjects [1]; 2.0 mg for 21 days", "result": "51.00 (4.78) BPM"},
      {"measurement": "Minimum post-dose Systolic BP, Change from Baseline Mean", "setting": "healthy adult subjects [1]; 2.0 mg for 21 days", "result": "−9.80", "unit": "mmHg"},
      {"measurement": "Minimum post-dose Systolic BP, Change from Baseline Median", "setting": "healthy adult subjects [1]; 2.0 mg for 21 days", "result": "−9.00", "unit": "mmHg"},
      {"measurement": "Minimum post-dose Systolic BP, Change from Baseline Min, Max", "setting": "healthy adult subjects [1]; 2.0 mg for 21 days", "result": "−18.00 to −4.00", "unit": "mmHg"},
      {"measurement": "Minimum post-dose Systolic BP, On Treatment Mean", "setting": "healthy adult subjects [1]; 2.0 mg for 21 days", "result": 90.80, "unit": "mmHg"},
      {"measurement": "reduction in lymphocytes relative to placebo", "setting": "lymphocytes [2]; 1 mg q.d.", "result": 37, "unit": "%"},
      {"measurement": "reduction in lymphocytes relative to placebo", "setting": "lymphocytes [2]; 2 mg q.d., p<0.001", "result": 57, "unit": "%"},
      {"measurement": "Lymphocytes On Treatment Mean (SD)", "setting": "lymphocytes [3]; [5]", "result": "0.62 (0.18) 10^3/μl"},
      {"measurement": "Lymphocytes Percent Change from Baseline Mean", "setting": "lymphocytes [3]; [5]", "result": "−67.34", "unit": "%"},
      {"measurement": "Lymphocytes Percent Change from Baseline Median", "setting": "lymphocytes [3]; [5]", "result": "−67.54", "unit": "%"},
      {"measurement": "Lymphocytes Percent Change from Baseline Min, Max", "setting": "lymphocytes [3]; [5]", "result": "−77.27 to −57.14", "unit": "%"},
      {"measurement": "Lymphocytes On Treatment Mean (SD)", "setting": "lymphocytes [3]; [6]", "result": "0.62 (0.25) 10^3/μl"},
      {"measurement": "Lymphocytes Percent Change from Baseline Mean", "setting": "lymphocytes [3]; [6]", "result": "−66.16", "unit": "%"},
      {"measurement": "Lymphocytes Percent Change from Baseline Median", "setting": "lymphocytes [3]; [6]", "result": "−65.02", "unit": "%"},
      {"measurement": "Lymphocytes Percent Change from Baseline Min, Max", "setting": "lymphocytes [3]; [6]", "result": "−85.19 to −53.85", "unit": "%"},
      {"measurement": "Lymphocytes On Treatment Mean (SD)", "setting": "lymphocytes [3]; 0.7 mg for 21 days", "result": "1.06 (0.28) 10^3/μl"},
      {"measurement": "Lymphocytes Percent Change from Baseline Mean", "setting": "lymphocytes [3]; 0.7 mg for 21 days", "result": "−41.03", "unit": "%"},
      {"measurement": "Lymphocytes Percent Change from Baseline Median", "setting": "lymphocytes [3]; 0.7 mg for 21 days", "result": "−40.37", "unit": "%"},
      {"measurement": "Lymphocytes Percent Change from Baseline Min, Max", "setting": "lymphocytes [3]; 0.7 mg for 21 days", "result": "−55.56 to −23.08", "unit": "%"},
      {"measurement": "Lymphocytes On Treatment Mean (SD)", "setting": "lymphocytes [3]; 1.35 mg for 21 days", "result": "0.89 (0.32) 10^3/μl"},
      {"measurement": "Lymphocytes Percent Change from Baseline Mean", "setting": "lymphocytes [3]; 1.35 mg for 21 days", "result": "−53.43", "unit": "%"},
      {"measurement": "Lymphocytes Percent Change from Baseline Median", "setting": "lymphocytes [3]; 1.35 mg for 21 days", "result": "−51.85", "unit": "%"},
      {"measurement": "Lymphocytes Percent Change from Baseline Min, Max", "setting": "lymphocytes [3]; 1.35 mg for 21 days", "result": "−68.75 to −30.77", "unit": "%"},
      {"measurement": "Lymphocytes On Treatment Mean (SD)", "setting": "lymphocytes [3]; 2.0 mg for 21 days", "result": "0.62 (0.18) 10^3/μl"},
      {"measurement": "Lymphocytes Percent Change from Baseline Mean", "setting": "lymphocytes [3]; 2.0 mg for 21 days", "result": "−68.81", "unit": "%"},
      {"measurement": "Lymphocytes Percent Change from Baseline Median", "setting": "lymphocytes [3]; 2.0 mg for 21 days", "result": "−69.44", "unit": "%"},
      {"measurement": "Lymphocytes Percent Change from Baseline Min, Max", "setting": "lymphocytes [3]; 2.0 mg for 21 days", "result": "−80.00 to −55.56", "unit": "%"},
      {"measurement": "dose with maximal effect on lymphocyte lowering (dose-dependent)", "setting": "lymphocytes [3]; multiple dosing 21 days", "result": 2, "unit": "mg"},
      {"measurement": "mildly abnormal reproducible (NCS) pulmonary function test findings (FEV1 below 80%, FVC) post-dose", "setting": "healthy adult subjects [4]; 1.35 mg dose", "result": "One subject"},
      {"measurement": "subjects who developed new 1″ degree atrioventricular block", "setting": "healthy adult subjects [4]; 2 mg group", "result": 1, "unit": "subject"},
      {"measurement": "subjects with mildly abnormal post-treatment liver function tests (ALT & AST >2× ULN)", "setting": "healthy adult subjects [4]; 2 mg group", "result": 1, "unit": "subject"},
      {"measurement": "subjects who developed new 1″ degree atrioventricular block", "setting": "healthy adult subjects [4]; 0.5, 3 mg group", "result": 1, "unit": "subject"},
      {"measurement": "subjects with mildly abnormal post-treatment liver function tests (ALT & AST >2× ULN)", "setting": "healthy adult subjects [4]; 0.5 escalating to 3 mg group", "result": 1, "unit": "subject"},
      {"measurement": "SAEs or deaths", "setting": "healthy adult subjects [4]; all dose levels", "result": "No SAEs or deaths occurred"},
      {"measurement": "ophthalmoscopy findings", "setting": "healthy adult subjects [4]; all dose levels", "result": "No clinically significant change from baseline"},
      {"measurement": "other safety issues (vital signs, ECGs, PFTs, ophthalmoscopy, clinical laboratory tests)", "setting": "healthy adult subjects [4]; all dose levels", "result": "no other clinically significant safety issues"},
      {"measurement": "second degree heart block", "setting": "healthy adult subjects [4]; all dose levels", "result": "No second degree heart block was found"},
      {"measurement": "subjects discontinued due to an adverse event", "setting": "healthy adult subjects [4]; all dose levels", "result": "No subjects were discontinued due to an adverse event"},
      {"measurement": "most common adverse events", "setting": "healthy adult subjects [4]; all dose levels, 21 days", "result": "contact dermatitis and leukopenia, followed by constipation, diarrhea, nausea, and abdominal pain"},
      {"measurement": "severity of adverse events", "setting": "healthy adult subjects [4]; all dose levels, 21 days", "result": "majority of adverse events were mild"},
      {"measurement": "tolerability", "setting": "healthy adult subjects [4]; all dose levels, 21 days", "result": "tolerated at all dose levels; also recorded: well tolerated at all doses tested"}
    ]}
  ]
}
